According to patent publication US9763445B2, “Safened herbicidal compositions comprising a pyridine carboxylic acid herbicide” (Dow AgroSciences, LLC, priority 2014, dated 2017):

Legend:
pigweed (AMARE) = experiment: Postemergence greenhouse trial, % visual injury on pigweed; assay type: in vivo, Amaranthus retroflexus; settings: for % visual injury, Ob / % visual injury, observed (Ob): AMARE
How it was run: (§1)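 Injury was scored visually (0 = none, 100 = complete kill) 20–22 d after track-sprayer application at 187 L/ha, compared with solvent-sprayed controls. Test plants at the 2–3 true leaf stage; herbicide (g ae/ha) plus cloquintocet-mexyl safener (g ai/ha) in crop-oil-containing spray; expected mixture response by Colby.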

winter rape (BRSNW) = experiment: Postemergence greenhouse trial, % visual injury on winter rape; assay type: in vivo, Brassica napus; settings: for % visual injury, Ob: BRSNW
How it was run: (§2)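 Visual injury, 0 (none) to 100 (complete kill), rated 20-22 d after overhead track-sprayer application at 187 L/ha; Colby's equation gave expected mixture responses. Herbicide (g ae/ha) and cloquintocet-mexyl safener (g ai/ha) diluted in aqueous 1.5% v/v Agri-dex, applied to weeds at 2–3 true leaves.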

thistle (CIRAR) = experiment: Postemergence greenhouse trial, % visual injury on thistle; assay type: in vivo, Cirsium arvense; settings: for % visual injury, Ob: CIRAR
How it was run: as §2

Russian thistle (SASKR) = experiment: Postemergence greenhouse trial, % visual injury on Russian thistle; assay type: in vivo, Salsola kali
spring wheat (TRZAS) = experiment: Postemergence greenhouse trial, % visual injury on spring wheat; assay type: in vivo, Triticum aestivum
How it was run: as §1

[1] = compound 0 g/ha, CQC-m 4.375 g/ha
[2] = compound 0 g/ha, CQC-m 8.75 g/ha
[3] = compound 0 g/ha, CQC-m 17.5 g/ha

CCCCCC(C)OC(=O)COc1ccc(Cl)c2cccnc12 (centres unmarked) [CQC-m, cloquintocet-mexyl, reference compound]
0%: % visual injury, Ob (pigweed (AMARE); 4.375 g/ha, applied alone) | % visual injury, Ob (pigweed (AMARE); 8.75 g/ha, applied alone) | % visual injury, Ob (pigweed (AMARE); 17.5 g/ha, applied alone) | % visual injury, Ob (pigweed (AMARE); 35 g/ha, applied alone) | % visual injury, Ob (pigweed (AMARE); 70 g/ha, applied alone) | % visual injury, Ob (pigweed (AMARE); compound 0, CQC-m 4.375 g/ha) | % visual injury, Ob (pigweed (AMARE); compound 0, CQC-m 8.75 g/ha) | % visual injury, Ob (pigweed (AMARE); compound 0, CQC-m 17.5 g/ha) | % visual injury, Ob (pigweed (AMARE); compound 0, CQC-m 35 g/ha) | % visual injury, Ob (pigweed (AMARE); compound 0, CQC-m 70 g/ha) | % visual injury, Ob (pigweed (AMARE); [1]) | % visual injury, Ob (pigweed (AMARE); [2]) | % visual injury, Ob (pigweed (AMARE); [3]) | % visual injury, Ob (pigweed (AMARE); compound 0 g/ha, CQC-m 35 g/ha) | % visual injury, Ob (pigweed (AMARE); compound 0 g/ha, CQC-m 70 g/ha) | % visual injury, observed (Ob) (pigweed (AMARE); safener alone 2.5 g/ha) | % visual injury, observed (Ob) (pigweed (AMARE); safener alone 5 g/ha) | % visual injury, observed (Ob) (pigweed (AMARE); safener alone 10 g/ha) | % visual injury, observed (Ob) (pigweed (AMARE); safener alone 20 g/ha) | pest or weed control at 4.375 g/ha (pigweed (AMARE); Amaranthus retroflexus, post-emergence, alone, 4.375 g/ha, read-out: % visual injury, Ob) | pest or weed control at 8.75 g/ha (pigweed (AMARE); Amaranthus retroflexus, post-emergence, alone, 8.75 g/ha, read-out: % visual injury, Ob) | pest or weed control at 17.5 g/ha (pigweed (AMARE); Amaranthus retroflexus, post-emergence, alone, 17.5 g/ha, read-out: % visual injury, Ob) | pest or weed control at 20 g/ha (pigweed (AMARE); Amaranthus retroflexus, post-emergence, alone, 20 g/ha, read-out: % visual injury, Ob) | pest or weed control at 35 g/ha (pigweed (AMARE); Amaranthus retroflexus, post-emergence, alone, 35 g/ha, read-out: % visual injury, Ob) | pest or weed control at 40 g/ha (pigweed (AMARE); Amaranthus retroflexus, post-emergence, alone, 40 g/ha, read-out: % visual injury, Ob) | pest or weed control at 70 g/ha (pigweed (AMARE); Amaranthus retroflexus, post-emergence, alone, 70 g/ha, read-out: % visual injury, Ob) | pest or weed control at 80 g/ha (pigweed (AMARE); Amaranthus retroflexus, post-emergence, alone, 80 g/ha, read-out: % visual injury, Ob) | % visual injury, Δ (pigweed (AMARE); alone, 35 g/ha) | % visual injury, Ob (winter rape (BRSNW); 4.375 g/ha, applied alone) | % visual injury, Ob (winter rape (BRSNW); 8.75 g/ha, applied alone) | % visual injury, Ob (winter rape (BRSNW); 17.5 g/ha, applied alone) | % visual injury, Ob (winter rape (BRSNW); 35 g/ha, applied alone) | % visual injury, Ob (winter rape (BRSNW); 70 g/ha, applied alone) | % visual injury, Ob (winter rape (BRSNW); compound 0, CQC-m 4.375 g/ha) | % visual injury, Ob (winter rape (BRSNW); compound 0, CQC-m 8.75 g/ha) | % visual injury, Ob (winter rape (BRSNW); compound 0, CQC-m 17.5 g/ha) | % visual injury, Ob (winter rape (BRSNW); compound 0, CQC-m 35 g/ha) | % visual injury, Ob (winter rape (BRSNW); compound 0, CQC-m 70 g/ha) | % visual injury, Ob (winter rape (BRSNW); [1]) | % visual injury, Ob (winter rape (BRSNW); [2]) | % visual injury, Ob (winter rape (BRSNW); [3]) | % visual injury, Ob (winter rape (BRSNW); compound 0 g/ha, CQC-m 35 g/ha) | % visual injury, Ob (winter rape (BRSNW); compound 0 g/ha, CQC-m 70 g/ha) | plant injury at 4.375 g/ha (winter rape (BRSNW); Brassica napus, post-emergence, alone, 4.375 g/ha, read-out: % visual injury, Ob) | plant injury at 8.75 g/ha (winter rape (BRSNW); Brassica napus, post-emergence, alone, 8.75 g/ha, read-out: % visual injury, Ob) | plant injury at 17.5 g/ha (winter rape (BRSNW); Brassica napus, post-emergence, alone, 17.5 g/ha, read-out: % visual injury, Ob) | plant injury at 35 g/ha (winter rape (BRSNW); Brassica napus, post-emergence, alone, 35 g/ha, read-out: % visual injury, Ob) | plant injury at 70 g/ha (winter rape (BRSNW); Brassica napus, post-emergence, alone, 70 g/ha, read-out: % visual injury, Ob) | % visual injury, Ob (thistle (CIRAR); 4.375 g/ha, applied alone) | % visual injury, Ob (thistle (CIRAR); 8.75 g/ha, applied alone) | % visual injury, Ob (thistle (CIRAR); 17.5 g/ha, applied alone) | % visual injury, Ob (thistle (CIRAR); 35 g/ha, applied alone) | % visual injury, Ob (thistle (CIRAR); 70 g/ha, applied alone) | % visual injury, Ob (thistle (CIRAR); compound 0, CQC-m 4.375 g/ha) | % visual injury, Ob (thistle (CIRAR); compound 0, CQC-m 8.75 g/ha) | % visual injury, Ob (thistle (CIRAR); compound 0, CQC-m 17.5 g/ha) | % visual injury, Ob (thistle (CIRAR); compound 0, CQC-m 35 g/ha) | % visual injury, Ob (thistle (CIRAR); compound 0, CQC-m 70 g/ha) | pest or weed control at 4.375 g/ha (thistle (CIRAR); Cirsium arvense, post-emergence, alone, 4.375 g/ha, read-out: % visual injury, Ob) | pest or weed control at 8.75 g/ha (thistle (CIRAR); Cirsium arvense, post-emergence, alone, 8.75 g/ha, read-out: % visual injury, Ob) | pest or weed control at 17.5 g/ha (thistle (CIRAR); Cirsium arvense, post-emergence, alone, 17.5 g/ha, read-out: % visual injury, Ob) | pest or weed control at 35 g/ha (thistle (CIRAR); Cirsium arvense, post-emergence, alone, 35 g/ha, read-out: % visual injury, Ob) | pest or weed control at 70 g/ha (thistle (CIRAR); Cirsium arvense, post-emergence, alone, 70 g/ha, read-out: % visual injury, Ob) | % visual injury, Ob (Russian thistle (SASKR); SASKR, 4.375 g/ha, applied alone) | % visual injury, Ob (Russian thistle (SASKR); SASKR, 8.75 g/ha, applied alone) | % visual injury, Ob (Russian thistle (SASKR); SASKR, 17.5 g/ha, applied alone) | % visual injury, Ob (Russian thistle (SASKR); SASKR, 35 g/ha, applied alone) | % visual injury, Ob (Russian thistle (SASKR); SASKR, 70 g/ha, applied alone) | % visual injury, Ob (Russian thistle (SASKR); SASKR, compound 0, CQC-m 4.375 g/ha) | % visual injury, Ob (Russian thistle (SASKR); SASKR, compound 0, CQC-m 8.75 g/ha) | % visual injury, Ob (Russian thistle (SASKR); SASKR, compound 0, CQC-m 17.5 g/ha) | % visual injury, Ob (Russian thistle (SASKR); SASKR, compound 0, CQC-m 35 g/ha) | % visual injury, Ob (Russian thistle (SASKR); SASKR, compound 0, CQC-m 70 g/ha) | % visual injury, Ob (Russian thistle (SASKR); SASKR, compound 0 g/ha, CQC-m 4.375 g/ha) | % visual injury, Ob (Russian thistle (SASKR); SASKR, compound 0 g/ha, CQC-m 8.75 g/ha) | % visual injury, Ob (Russian thistle (SASKR); SASKR, compound 0 g/ha, CQC-m 17.5 g/ha) | % visual injury, Ob (Russian thistle (SASKR); SASKR, compound 0 g/ha, CQC-m 35 g/ha) | % visual injury, Ob (Russian thistle (SASKR); SASKR, compound 0 g/ha, CQC-m 70 g/ha) | % visual injury, observed (Ob) (Russian thistle (SASKR); SASKR, compound 8 0 + CQC-m 4.375 g/ha) | % visual injury, observed (Ob) (Russian thistle (SASKR); SASKR, compound 8 0 + CQC-m 8.75 g/ha) | % visual injury, observed (Ob) (Russian thistle (SASKR); SASKR, compound 8 0 + CQC-m 17.5 g/ha) | % visual injury, observed (Ob) (Russian thistle (SASKR); SASKR, compound 8 0 + CQC-m 35 g/ha) | % visual injury, observed (Ob) (Russian thistle (SASKR); SASKR, compound 8 0 + CQC-m 70 g/ha) | % visual injury, Ob (Russian thistle (SASKR); alone, 4.375 g/ha) | % visual injury, Ob (Russian thistle (SASKR); alone, 8.75 g/ha) | % visual injury, Ob (Russian thistle (SASKR); alone, 17.5 g/ha) | % visual injury, Ob (Russian thistle (SASKR); alone, 35 g/ha) | % visual injury, Ob (Russian thistle (SASKR); alone, 70 g/ha) | % visual injury, Ob (spring wheat (TRZAS); TRZAS, 4.375 g/ha, applied alone) | % visual injury, Ob (spring wheat (TRZAS); TRZAS, 8.75 g/ha, applied alone) | % visual injury, Ob (spring wheat (TRZAS); TRZAS, 17.5 g/ha, applied alone) | % visual injury, Ob (spring wheat (TRZAS); TRZAS, 35 g/ha, applied alone) | % visual injury, Ob (spring wheat (TRZAS); TRZAS, 70 g/ha, applied alone) | % visual injury, Ob (spring wheat (TRZAS); TRZAS, compound 0, CQC-m 4.375 g/ha) | % visual injury, Ob (spring wheat (TRZAS); TRZAS, compound 0, CQC-m 8.75 g/ha) | % visual injury, Ob (spring wheat (TRZAS); TRZAS, compound 0, CQC-m 17.5 g/ha) | % visual injury, Ob (spring wheat (TRZAS); TRZAS, compound 0, CQC-m 35 g/ha) | % visual injury, Ob (spring wheat (TRZAS); TRZAS, compound 0, CQC-m 70 g/ha) | % visual injury, Ob (spring wheat (TRZAS); TRZAS, compound 0 g/ha, CQC-m 4.375 g/ha) | % visual injury, Ob (spring wheat (TRZAS); TRZAS, compound 0 g/ha, CQC-m 8.75 g/ha) | % visual injury, Ob (spring wheat (TRZAS); TRZAS, compound 0 g/ha, CQC-m 17.5 g/ha) | % visual injury, Ob (spring wheat (TRZAS); TRZAS, compound 0 g/ha, CQC-m 35 g/ha) | % visual injury, Ob (spring wheat (TRZAS); TRZAS, compound 0 g/ha, CQC-m 70 g/ha) | % visual injury, observed (Ob) (spring wheat (TRZAS); TRZAS, compound 8 0 + CQC-m 4.375 g/ha) | % visual injury, observed (Ob) (spring wheat (TRZAS); TRZAS, compound 8 0 + CQC-m 8.75 g/ha) | % visual injury, observed (Ob) (spring wheat (TRZAS); TRZAS, compound 8 0 + CQC-m 17.5 g/ha) | % visual injury, observed (Ob) (spring wheat (TRZAS); TRZAS, compound 8 0 + CQC-m 35 g/ha) | % visual injury, observed (Ob) (spring wheat (TRZAS); TRZAS, compound 8 0 + CQC-m 70 g/ha) | % visual injury, Ob (spring wheat (TRZAS); alone, 4.375 g/ha) | % visual injury, Ob (spring wheat (TRZAS); alone, 8.75 g/ha) | % visual injury, Ob (spring wheat (TRZAS); alone, 17.5 g/ha) | % visual injury, Ob (spring wheat (TRZAS); alone, 20 g/ha) | % visual injury, Ob (spring wheat (TRZAS); alone, 35 g/ha) | % visual injury, Ob (spring wheat (TRZAS); alone, 40 g/ha) | % visual injury, Ob (spring wheat (TRZAS); alone, 70 g/ha) | % visual injury, Ob (spring wheat (TRZAS); alone, 80 g/ha)
